Laboratory results taken from publication PMC9458978, “Design, synthesis and biological evaluation of novel biphenylsulfonamide derivatives as selective AT2 receptor antagonists” (Frontiers in Chemistry, 2022).
Like-named read-outs stand apart in the source and are kept apart here.

How the values were obtained:
[1] = target: T1, AT1 receptor (Rattus norvegicus, UniProt P25095); assay: Rat liver membrane AT1 receptor binding assay ([125I]-Ang II displacement); conditions: displacement of [125I]-Ang II, rat liver membranes; means ± SE, triplicate; read-out: Ki (nM) AT1R
T1 construct: Rat liver membranes were prepared according to the method of Dudley et al; from tissue; host or cells: rat liver membranes
Procedure: The target compounds were evaluated for AT1 receptor binding affinity by displacement of [^125I]-Ang II from the AT1 receptor in rat liver membranes. The radio-iodinated AT2 receptor selective ligand [^125I]-CGP42112 was used to study AT2 receptor binding affinity in HEK-293 cells (HEK293-hAT2R) ([Dudley et al., 1990]; [Whitebread et al., 1991]). All of above methods were widely accepted and used to evaluate the binding activity of AT1 and AT2 receptors.
Rat liver membranes were prepared according to the method of Dudley et al ([Dudley et al., 1990]). After HEK-293 cells were transfected with the AT2 receptor, a lysis buffer was used to separate the cell membrane of HEK-293 cells ([Grieger et al., 2016]), using 27-G Resuspend. The lysis solution was mixed and centrifuged at 12,000 g for 10 min at 4°C. Details are shown in the Supplementary Material.
3. Radioligand binding assay steps
3.1 Rat Liver Membrane AT1 Receptor Binding Assay.
Rat liver membranes were prepared according to the method of Dudley et al[1].
Binding of [125I]-Ang II to membranes was conducted in a final volume of 0.5 mL containing 50 mM Tris-HCl (pH 7.4), 100 mM NaCl, 10 mM MgCl2, 1 mM EDTA, 0.025% bacitracin, 0.2% BSA (bovine serum albumin), liver homogenate corresponding to 5 mg of the original tissue weight, [125I]-Ang II (80000-85 000 cpm, 0.03 nM), and variable concentrations of test substance. Samples were incubated at 25 ℃ for 2 h, and binding was terminated by filtration through Whatman GF/B glass-fiber filter sheets, which had been presoaked overnight with 0.3 % polyethylamine, using a Brandel cell harvester. The filterswere washed with 3×3 mL of Tris-HCl (pH 7.4) and transferred to tubes. The radioactivity was measured in a γ-counter. The characteristics of the Ang II binding AT1receptor was determined by using six different concentrations (0.03-5 nmol/L) of the labeled [125I]-Ang II.
Nonspecific binding was determined in the presence of 1 µM Ang II.The specific binding was determined by subtracting the nonspecific binding from the total bound [125I]-Ang II.The apparent dissociation constant Ki values were calculated from IC50 values using the Cheng-Prusoff equation. […]
(§1) one-site fit.All determinations were performed in triplicate. […]

[2] = target: T2, AT2 receptor (Homo sapiens, UniProt P50052); assay: HEK-293 cell AT2 receptor binding assay ([125I]-CGP42112 displacement, HEK293-hAT2R)
T2 construct: expressed in transfected cells; host or cells: HEK-293
T2 sequence (P50052 1-363): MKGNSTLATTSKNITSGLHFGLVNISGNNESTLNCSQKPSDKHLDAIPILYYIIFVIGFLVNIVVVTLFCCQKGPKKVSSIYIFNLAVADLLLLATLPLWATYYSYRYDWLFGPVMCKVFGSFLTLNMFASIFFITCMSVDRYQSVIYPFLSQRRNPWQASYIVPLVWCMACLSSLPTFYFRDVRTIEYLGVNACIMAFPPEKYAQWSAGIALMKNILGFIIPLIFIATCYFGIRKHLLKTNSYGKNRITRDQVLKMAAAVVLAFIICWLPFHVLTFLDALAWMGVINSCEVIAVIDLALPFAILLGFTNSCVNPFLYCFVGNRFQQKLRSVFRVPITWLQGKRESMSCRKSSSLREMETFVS
Procedure: All of above methods were widely accepted and used to evaluate the binding activity of AT1 and AT2 receptors.
The lysis solution was mixed and centrifuged at 12,000 g for 10 min at 4°C. Details are shown in the Supplementary Material.
After HEK-293 cells were transfected with AT2 receptor, lysis buffer (150 mM NaCl, 0.1% Triton X-100, 50 mM Tris-HCl, 1 mM EDTA, protease inhibitor) was used to separate the cell membrane of HEK-293 cells[2],using 27-G Resuspend and mix the lysis solution, and centrifuge at 12,000 g for 10 minutes at 4 °C. The supernatant was collected and centrifuged for a further 60 minutes. The precipitated membrane extracts were buffered (150 mM NaCl, 10 mM MgCl2, 0.5 % SDS, 1 % Triton X-100, 50 mM Tris-Cl, 1 mM EDTA, protease inhibitor ) for resuspension. […]
mL containing 50 mM Tris-HCl (pH 7.4), 100 mM NaCl, 10 mM MgCl2, 1 mM […]
cpm, 0.03 nM), and variable concentrations of test substance. Samples were incubated at 25 ℃ for 2 h, and binding was terminated by filtration through Whatman GF/B glass-fiber filter sheets, which had been presoaked overnight with 0.3 % polyethylamine, using a Brandel cell harvester. The filterswere washed with 3×3 mL of Tris-HCl (pH 7.4) and transferred to tubes. The radioactivity was measured in a γ-counter. The characteristics of the Ang II binding AT1 receptor was determined by […]
Nonspecific binding was determined in the presence of 1 µM Ang II.The specific binding was determined by subtracting the nonspecific binding from the total bound The apparent dissociation constant Ki values were calculated from IC50 values using the Cheng-Prusoff equation. […]
as §1

T1 sequence (P25095 whole entry): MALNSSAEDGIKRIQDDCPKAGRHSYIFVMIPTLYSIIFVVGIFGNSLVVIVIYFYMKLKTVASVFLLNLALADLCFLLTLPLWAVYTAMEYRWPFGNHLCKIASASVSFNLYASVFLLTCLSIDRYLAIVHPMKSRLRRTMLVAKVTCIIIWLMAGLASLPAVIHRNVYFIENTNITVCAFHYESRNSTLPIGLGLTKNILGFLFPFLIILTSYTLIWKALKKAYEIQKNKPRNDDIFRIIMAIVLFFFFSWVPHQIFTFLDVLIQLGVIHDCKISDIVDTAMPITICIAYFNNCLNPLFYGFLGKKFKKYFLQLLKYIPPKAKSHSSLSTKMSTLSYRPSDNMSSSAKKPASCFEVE

SMILES | Ki [1] | melting point | Ki [2] | Ki ([2]; displacement of [125I]-CGP42112, HEK293-hAT2R membranes, means ± SE, triplicate, read-out: Ki (nM) AT2R)
CCCCC(=O)NS(=O)(=O)c1ccc(CC(C)C)cc1-c1cccc(Cn2cncn2)c1 [8a, N-((3'-((1H-1,2,4-triazol-1-yl)methyl)-5-isobutyl-[1,1′-biphenyl]-2-yl)sulfonyl)pentanamide] | 629.4 ± 1.1 nM | 138.4 to 139.7 °C | 873.7 ± 1.1 nM | –
CCCCOC(=O)NS(=O)(=O)c1ccc(CC(C)C)cc1-c1cccc(Cn2cncn2)c1 [8b, ((3'-((1H-1,2,4-triazol-1-yl)methyl)-5-isobutyl-[1,1′-biphenyl]-2-yl)sulfonyl)carbamae] | 846.1 ± 1.17 nM | 148.1 to 149.3 °C | 273.5 ± 1.2 nM | –
CC(C)COC(=O)NS(=O)(=O)c1ccc(CC(C)C)cc1-c1cccc(Cn2cncn2)c1 [8c, Isobutyl((3'-((1H-1,2,4-triazol-1-yl)methyl)-5-isobutyl-[1,1′-biphenyl]-2-yl)sulfonyl)carbamate] | 1037 ± 1.1 nM | 145.3 to 146.2 °C | 322 ± 1.24 nM | –
CCCCC(=O)NS(=O)(=O)c1ccc(CCCC)cc1-c1cccc(Cn2cncn2)c1 [8e, N-((3'-((1H-1,2,4-triazol-1-yl)methyl)-5-butyl-[1,1′-biphenyl]-2-yl)sulfonyl)pentanamide] | 505.2 ± 1.4 nM | 141.8 to 142.4 °C | 753.9 ± 1.1 nM | –
CCCCOC(=O)NS(=O)(=O)c1ccc(CCCC)cc1-c1cccc(Cn2cncn2)c1 [8f, Butyl((3'-((1H-1,2,4-triazol-1-yl)methyl)-5-butyl-[1,1′-biphenyl]-2-yl)sulfonyl)carbamate] | 1425 ± 1.12 nM | 150.1 to 151.4 °C | 252.7 ± 1.2 nM | –
CCCCc1ccc(S(=O)(=O)NC(=O)OCC(C)C)c(-c2cccc(Cn3cncn3)c2)c1 [8g, Isobutyl((3'-((1H-1,2,4-triazol-1-yl)methyl)-5-butyl-[1,1′-biphenyl]-2-yl)sulfonyl)carbamate] | 945.5 ± 1.22 nM | 168.4 to 169.1 °C | 347.5 ± 1.36 nM | –

Now from value to compound:

Ki [1] | melting point | Ki [2] | Ki ([2]; displacement of [125I]-CGP42112, HEK293-hAT2R membranes, means ± SE, triplicate, read-out: Ki (nM) AT2R) | SMILES
1264 ± 1.14 nM | 125.8 to 126.7 °C | 1152 ± 1.1 nM | – | CCCCC(=O)NS(=O)(=O)c1ccc(CC(C)C)cc1-c1cccc(Cn2cccn2)c1 [9a, N-((3'-((1H-pyrazol-1-yl)methyl)-5-isobutyl-[1,1′-biphenyl]-2-yl)sulfonyl)pentanamide]
989.7 ± 1.08 nM | 129.1 to 131.4 °C | – | 1027 ± 1.15 nM | CCCCOC(=O)NS(=O)(=O)c1ccc(CC(C)C)cc1-c1cccc(Cn2cccn2)c1 [9b, Butyl((3'-((1H-pyrazol-1-yl)methyl)-5-isobutyl-[1,1′-biphenyl]-2-yl)sulfonyl)carbamate]
1027 ± 1.08 nM | 149.6 to 151.3 °C | 916.2 ± 1.3 nM | – | CC(C)COC(=O)NS(=O)(=O)c1ccc(CC(C)C)cc1-c1cccc(Cn2cccn2)c1 [9c, Isobutyl((3'-((1H-pyrazol-1-yl)methyl)-5-isobutyl-[1,1′-biphenyl]-2-yl)sulfonyl)carbamate]
1549 ± 1.11 nM | 146.6 to 147.5 °C | 74.1 ± 1.16 nM | – | CC(C)Cc1ccc(S(=O)(=O)NC(=O)OC(C)C)c(-c2cccc(Cn3cccn3)c2)c1 [9d, Isopropyl((3'-((1H-pyrazol-1-yl)methyl)-5-isobutyl-[1,1′-biphenyl]-2-yl)sulfonyl)carbamate]
363.9 ± 1.28 nM | 140.1 to 141.3 °C | 992.9 ± 1.26 nM | – | CCCCC(=O)NS(=O)(=O)c1ccc(CCCC)cc1-c1cccc(Cn2cccn2)c1 [9e, N-((3'-((1H-pyrazol-1-yl)methyl)-5-butyl-[1,1′-biphenyl]-2-yl)sulfonyl)pentanamide]
1310 ± 1.11 nM | 142.5 to 143.1 °C | 467.9 ± 1.19 nM | – | CCCCOC(=O)NS(=O)(=O)c1ccc(CCCC)cc1-c1cccc(Cn2cccn2)c1 [9f, Butyl((3'-((1H-pyrazol-1-yl)methyl)-5-butyl-[1,1′-biphenyl]-2-yl)sulfonyl)carbamate]
1212 ± 1.12 nM | 149.3 to 151.2 °C | 513.3 ± 1.18 nM | – | CCCCc1ccc(S(=O)(=O)NC(=O)OCC(C)C)c(-c2cccc(Cn3cccn3)c2)c1 [9g, Isobutyl((3'-((1H-pyrazol-1-yl)methyl)-5-butyl-[1,1′-biphenyl]-2-yl)sulfonyl)carbamate]
